Assays:
[1] = molecular target: NAMPT (human, recombinant, C-terminally His-tagged) (Homo sapiens, UniProt P43490); test: Time-Resolved Fluorescence Resonance Energy Transfer (TR-FRET) Binding Assay of NAMPT; conditions: without substrates; 6.8 nM NAMPT, 200 nM probe, 3 hours equilibration
In short: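 Probe displacement by compound was measured with 6.8 nM NAMPT, 200 nM Oregon Green 488-conjugated nicotinamide-competitive inhibitor probe and 1 nM Tb-anti-His antibody in 50 mM HEPES pH 7.5, 100 mM NaCl, 10 mM MgCl2, 1 mM DTT, 1% glycerol, 2% DMSO (final). After 3 h at room temperature, TR-FRET was read; IC50 from four-parameter logistic fit.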

NAMPT = NAMPT (Homo sapiens, UniProt P43490); test: TR-FRET Binding Assay of NAMPT with PRPP; conditions: with 200 μM PRPP and 2.5 mM ATP; 2 nM NAMPT, 2 nM probe, 16 hours equilibration
In short: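 Run in the presence of substrates (200 μM PRPP, 2.5 mM ATP) with final 2 nM NAMPT, 2 nM probe, 1 nM Tb-anti-His antibody and 2% DMSO. Mixtures equilibrated 16 h before TR-FRET measurement so test compounds could be enzymatically modified.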

PC3 cells = test: NAMPT Cell Proliferation Assay; type: cell-based; conditions: Homo sapiens, PC-3, 120 h, 5 days incubation, cell viability by Cell Titer Glo
In short: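 Cell Titer Glo viability after 5-day exposure (37° C, 5% CO2); PC3, 500 cells/well, RPMI + 10% heat-inactivated FBS, overnight attachment before dosing. Dose range 10 μM to 1×10^−5 μM, 10-fold steps. IC50 = sigmoidal fit of % inhibition.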

NAMPT, sequence (P43490 whole entry): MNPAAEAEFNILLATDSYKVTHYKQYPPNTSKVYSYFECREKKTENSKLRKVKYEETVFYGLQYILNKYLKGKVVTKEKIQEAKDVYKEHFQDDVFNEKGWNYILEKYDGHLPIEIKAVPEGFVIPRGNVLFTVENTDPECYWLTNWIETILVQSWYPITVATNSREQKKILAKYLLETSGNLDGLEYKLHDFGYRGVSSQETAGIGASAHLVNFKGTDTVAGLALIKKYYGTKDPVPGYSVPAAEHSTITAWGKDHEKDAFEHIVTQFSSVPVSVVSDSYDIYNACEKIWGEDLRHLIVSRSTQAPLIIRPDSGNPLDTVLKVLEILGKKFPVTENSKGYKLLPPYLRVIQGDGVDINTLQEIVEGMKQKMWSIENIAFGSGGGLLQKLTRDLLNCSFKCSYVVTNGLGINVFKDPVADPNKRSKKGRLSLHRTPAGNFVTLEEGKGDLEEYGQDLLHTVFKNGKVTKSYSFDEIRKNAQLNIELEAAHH
NAMPT (human, recombinant, C-terminally His-tagged), sequence (P43490 whole entry): as above

SMILES	IC50 [1] [nM]	IC50 (NAMPT) [nM]	IC50 (PC3 cells) [nM]
Cc1ncc(CC(=O)N(CC2CCCO2)c2ncc(C(=O)NCc3ccc4nccn4c3)s2)s1 (stereo not drawn) [Example 123, N-(imidazo[1,2-a]pyridin-6-ylmethyl)-2-{[(2-methyl-1,3-thiazol-5-yl)acetyl](tetrahydrofuran-2-ylmethyl)amino}-1,3-thiazole-5-carboxamide]	133	2.57	7.43
Cc1nc(CC(=O)N(CC2CCCO2)c2ncc(C(=O)NCc3ccc4nccn4c3)s2)cs1 (stereo not drawn) [Example 124, N-(imidazo[1,2-a]pyridin-6-ylmethyl)-2-{[(2-methyl-1,3-thiazol-4-yl)acetyl](tetrahydrofuran-2-ylmethyl)amino}-1,3-thiazole-5-carboxamide]	1100	2.12	20.8
Cc1cc(CC(=O)N(CC2CCCO2)c2ncc(C(=O)NCc3ccc4nccn4c3)s2)on1 (stereo not drawn) [Example 125, N-(imidazo[1,2-a]pyridin-6-ylmethyl)-2-{[(3-methyl-1,2-oxazol-5-yl)acetyl](tetrahydrofuran-2-ylmethyl)amino}-1,3-thiazole-5-carboxamide]	547	2.09	23
O=C(NCc1ccc2nccn2c1)c1cnc(N(CC2CCCO2)C(=O)CCc2cc(Cl)no2)s1 (stereo not drawn) [Example 126, 2-{[3-(3-chloro-1,2-oxazol-5-yl)propanoyl](tetrahydrofuran-2-ylmethyl)amino}-N-(imidazo[1,2-a]pyridin-6-ylmethyl)-1,3-thiazole-5-carboxamide]	102	0.963	3.96
COc1cc(CCC(=O)N(CC2CCCO2)c2ncc(C(=O)NCc3ccc4nccn4c3)s2)on1 (stereo not drawn) [Example 127, N-(imidazo[1,2-a]pyridin-6-ylmethyl)-2-{[3-(3-methoxy-1,2-oxazol-5-yl)propanoyl](tetrahydrofuran-2-ylmethyl)amino}-1,3-thiazole-5-carboxamide]	52.2	0.522	2.34
Cc1noc(C)c1CC(=O)N(CC1CCCO1)c1ncc(C(=O)NCc2ccc3nccn3c2)s1 (stereo not drawn) [Example 128, 2-{[(3,5-dimethyl-1,2-oxazol-4-yl)acetyl](tetrahydrofuran-2-ylmethyl)amino}-N-(imidazo[1,2-a]pyridin-6-ylmethyl)-1,3-thiazole-5-carboxamide]	30.7	0.873	2.21
Cc1noc(C)c1CCC(=O)N(CC1CCCO1)c1ncc(C(=O)NCc2ccc3nccn3c2)s1 (stereo not drawn) [Example 129, 2-{[3-(3,5-dimethyl-1,2-oxazol-4-yl)propanoyl](tetrahydrofuran-2-ylmethyl)amino}-N-(imidazo[1,2-a]pyridin-6-ylmethyl)-1,3-thiazole-5-carboxamide]	11.6	0.634	2.74
Cn1cc(CCC(=O)N(CC2CCCO2)c2ncc(C(=O)NCc3ccc4nccn4c3)s2)cn1 (stereo not drawn) [Example 130, N-(imidazo[1,2-a]pyridin-6-ylmethyl)-2-{[3-(1-methyl-1H-pyrazol-4-yl)propanoyl](tetrahydrofuran-2-ylmethyl)amino}-1,3-thiazole-5-carboxamide]	53.2	0.981	6.55
Cc1ncsc1CCC(=O)N(CC1CCCO1)c1ncc(C(=O)NCc2ccc3nccn3c2)s1 (stereo not drawn) [Example 131, N-(imidazo[1,2-a]pyridin-6-ylmethyl)-2-{[3-(4-methyl-1,3-thiazol-5-yl)propanoyl](tetrahydrofuran-2-ylmethyl)amino}-1,3-thiazole-5-carboxamide]	15.2	1.67	2.17
O=C(NCc1ccc2nccn2c1)c1cnc(N(CC2CCCO2)C(=O)Cc2nnn[nH]2)s1 (stereo not drawn) [Example 132, N-(imidazo[1,2-a]pyridin-6-ylmethyl)-2-[(tetrahydrofuran-2-ylmethyl)(1H-tetrazol-5-ylacetyl)amino]-1,3-thiazole-5-carboxamide]	155	13.3	523
O=C(NCc1ccc2nccn2c1)c1cnc(N(CC2CCCO2)C(=O)CCc2ccno2)s1 (stereo not drawn) [Example 133, N-(imidazo[1,2-a]pyridin-6-ylmethyl)-2-{[3-(1,2-oxazol-5-yl)propanoyl](tetrahydrofuran-2-ylmethyl)amino}-1,3-thiazole-5-carboxamide]	67	0.709	2.16
O=C(NCc1ccc2nccn2c1)c1cnc(N(CC2CCCO2)C(=O)Cc2ccon2)s1 (stereo not drawn) [Example 134, N-(imidazo[1,2-a]pyridin-6-ylmethyl)-2-[(1,2-oxazol-3-ylacetyl)(tetrahydrofuran-2-ylmethyl)amino]-1,3-thiazole-5-carboxamide]	303	1.49	6.54
O=C(NCc1ccc2nccn2c1)c1cnc(N(CC2CCCO2)C(=O)CCc2cnoc2)s1 (stereo not drawn) [Example 135, N-(imidazo[1,2-a]pyridin-6-ylmethyl)-2-{[3-(1,2-oxazol-4-yl)propanoyl](tetrahydrofuran-2-ylmethyl)amino}-1,3-thiazole-5-carboxamide]	73.8	1.27	6.36
O=C(NCc1ccc2nccn2c1)c1cnc(N(CC2CCCO2)C(=O)CCc2nccs2)s1 (stereo not drawn) [Example 136, N-(imidazo[1,2-a]pyridin-6-ylmethyl)-2-{(tetrahydrofuran-2-ylmethyl)[3-(1,3-thiazol-2-yl)propanoyl]amino}-1,3-thiazole-5-carboxamide]	72.7	0.512	3.05
CC(C)CC(=O)Nc1ncc(C(=O)NCc2ccc3nccn3c2)s1 [Example 137, N-(imidazo[1,2-a]pyridin-6-ylmethyl)-2-[(3-methylbutanoyl)amino]-1,3-thiazole-5-carboxamide]	315	7.21	225
COCCNC(=O)N(CC1CCCO1)c1ncc(C(=O)NCc2ccn3ccnc3c2)s1 (stereo not drawn) [Example 138, N-(imidazo[1,2-a]pyridin-7-ylmethyl)-2-{[(2-methoxyethyl)carbamoyl](tetrahydrofuran-2-ylmethyl)amino}-1,3-thiazole-5-carboxamide]	80.7	0.424	3.83
COCCC(=O)N(CC1CCOC1)c1ncc(C(=O)NCc2ccc3nccn3c2)s1 (stereo not drawn) [Example 139, N-(imidazo[1,2-a]pyridin-6-ylmethyl)-2-[(3-methoxypropanoyl)(tetrahydrofuran-3-ylmethyl)amino]-1,3-thiazole-5-carboxamide]	582	0.173	12.2

The remaining lines, values ahead:

IC50 [1] [nM]	IC50 (NAMPT) [nM]	IC50 (PC3 cells) [nM]	SMILES
1340	0.927	65.5	O=C(NCc1ccc2nccn2c1)c1cnc(N(CC2CCOC2)C(=O)C2CCOCC2)s1 (stereo not drawn) [Example 140, N-(imidazo[1,2-a]pyridin-6-ylmethyl)-2-[(tetrahydrofuran-3-ylmethyl)(tetrahydro-2H-pyran-4-ylcarbonyl)amino]-1,3-thiazole-5-carboxamide]
2110	0.757	77.8	COCCNC(=O)N(CC1CCOC1)c1ncc(C(=O)NCc2ccc3nccn3c2)s1 (stereo not drawn) [Example 141, N-(imidazo[1,2-a]pyridin-6-ylmethyl)-2-{[(2-methoxyethyl)carbamoyl](tetrahydrofuran-3-ylmethyl)amino}-1,3-thiazole-5-carboxamide]
1430	3.05	18.2	COCCC(=O)N(CC1CCOCC1)c1ncc(C(=O)NCc2ccc3nccn3c2)s1 [Example 142, N-(imidazo[1,2-a]pyridin-6-ylmethyl)-2-[(3-methoxypropanoyl)(tetrahydro-2H-pyran-4-ylmethyl)amino]-1,3-thiazole-5-carboxamide]
8710	2.03	80.8	O=C(NCc1ccc2nccn2c1)c1cnc(N(CC2CCOCC2)C(=O)C2CCOC2)s1 (stereo not drawn) [Example 143, N-(imidazo[1,2-a]pyridin-6-ylmethyl)-2-[(tetrahydrofuran-3-ylcarbonyl)(tetrahydro-2H-pyran-4-ylmethyl)amino]-1,3-thiazole-5-carboxamide]
9490	2.92	187	O=C(NCc1ccc2nccn2c1)c1cnc(N(CC2CCOCC2)C(=O)C2CCOCC2)s1 [Example 144, N-(imidazo[1,2-a]pyridin-6-ylmethyl)-2-[(tetrahydro-2H-pyran-4-ylcarbonyl)(tetrahydro-2H-pyran-4-ylmethyl)amino]-1,3-thiazole-5-carboxamide]
191	1.08	6.01	COCCC(=O)N(C[C@H]1CCCO1)c1ncc(C(=O)NCc2ccc3nccn3c2)s1 [Example 145, N-(imidazo[1,2-a]pyridin-6-ylmethyl)-2-{(3-methoxypropanoyl)[(2R)-tetrahydrofuran-2-ylmethyl]amino}-1,3-thiazole-5-carboxamide]
261	0.403	7.69	O=C(NCc1ccc2nccn2c1)c1cnc(N(C[C@H]2CCCO2)C(=O)C2CCOC2)s1 (stereo partly drawn) [Example 146, N-(imidazo[1,2-a]pyridin-6-ylmethyl)-2-{(tetrahydrofuran-3-ylcarbonyl)[(2R)-tetrahydrofuran-2-ylmethyl]amino}-1,3-thiazole-5-carboxamide]
